# Source: patent US4587248A, “4-alkyl-thiophenyl-ethanolamines, having an activity the cerebral circulation, the blood platelet-aggregation and the lipenia” (priority 1981, dated 1986)
# Read-outs that look alike come from different tables or passages of the source.
# What was measured:
# [1] = test system: isolated intestines of Guinea pigs; test: spasmolytic activity in vitro on isolated intestines of Guinea pigs
# isolated rat aorta = test: contractions of isolated rat aorta (Godfraind and Kaba 1969)
# [2] = test system: isolated intestines of rats; test: spasmolytic activity in vitro on isolated intestines of rats
# [3] = test system: contractions caused by norepinephrine on the deferent duct; test: contractions caused by norepinephrine on the deferent duct (Barnett et al)
# [4] = test system: depolarized aorta of rats; test: contraction-promoting effect of bivalent calcium ions on the depolarized aorta of rats (Godfraind and Kaba 1972)
# mice = conditions: for Slope (fiducial limits): LD50, mice; for LD50, fiducial limits / LD50, fiducial limits (micromol/kg equivalent): mice; for LD50, fiducial limits (micromol/kg equivalent): in brackets
# in vivo = conditions: mouse, ip
# rats = conditions: for LD50, fiducial limits / LD50, fiducial limits (micromol/kg equivalent): rats; for Slope (fiducial limits): LD50, rats; for LD50, fiducial limits (micromol/kg equivalent): in brackets
smiles,measurement,setting,value
CC(C)Sc1ccc([C@@H](O)[C@@H](C)N2CCN(C(=O)C=Cc3ccccc3)CC2)cc1 (relative stereo) [1-(4-isopropylthiophenyl)-2-(4-cinnamoyl-piperazine-1-yl)-1-propanol],spasmolytic activity,[1],considerable spasmolytic activity
same,inhibition of contractions of isolated rat aorta,isolated rat aorta,inhibit the contractions of isolated rat aorta
same,spasmolytic activity,[2],considerable spasmolytic activity
same,inhibition of contractions caused by norepinephrine on the deferent duct,[3],inhibit the contractions caused by norepinephrine
same,inhibition of the contraction-promoting effect of bivalent calcium ions on the depolarized aorta,[4],has been inhibited
CC(C)Sc1ccc([C@@H](O)[C@H](C)N2CCN(C(=O)C=Cc3ccccc3)CC2)cc1 (relative stereo) [1-(4-isopropylthiophenyl)-2-(4-cinnamoyl-piperazine-1-yl)-1-propanol],Slope (fiducial limits),mice; intraperitoneally,1.36 (1.14-1.47)
same,Slope (fiducial limits),mice; orally,1.25 (1.10-1.42)
same,"LD50, fiducial limits",mice; intraperitoneally (TABLE 2),782-1082 mg/kg b.w.
same,"LD50, fiducial limits (micromol/kg equivalent)",mice; intraperitoneally (TABLE 2),1842 to 2548 µmol/kg
same,"LD50, fiducial limits",mice; orally (TABLE 2),3166-4208 mg/kg b.w.
same,"LD50, fiducial limits (micromol/kg equivalent)",mice; orally (TABLE 2),6867 to 9127 µmol/kg
same,spasmolytic activity,[1],considerable spasmolytic activity
same,inhibition of contractions of isolated rat aorta,isolated rat aorta,inhibit the contractions of isolated rat aorta
same,spasmolytic activity,[2],considerable spasmolytic activity
same,inhibition of contractions caused by norepinephrine on the deferent duct,[3],inhibit the contractions caused by norepinephrine
same,inhibition of the contraction-promoting effect of bivalent calcium ions on the depolarized aorta,[4],has been inhibited
CC(C)Sc1ccc([C@@H](O)[C@H](C)N2CCN(C(=O)C=Cc3ccccc3)CC2)cc1 (relative stereo) [Compound 1],LD50,in vivo,920 mg/kg
CC(C)Sc1ccc([C@@H](O)[C@@H](C)N2CCN(C(=O)C=Cc3ccccc3)CC2)cc1 (relative stereo) [Compound 2],LD50,in vivo,> 4000 mg/kg
COc1cc(C=CC(=O)N2CCN(C(C)C(O)c3ccc(SC(C)C)cc3)CC2)cc(OC)c1OC (centres unmarked) [Compound 3],LD50,in vivo,> 400 mg/kg
CC(C)Sc1ccc(C(O)C(C)N2CCN(CC=Cc3ccccc3)CC2)cc1 (centres unmarked) [Compound 4],LD50,in vivo,300 mg/kg
COc1cc(C=CCN2CCN(C(C)C(O)c3ccc(SC(C)C)cc3)CC2)cc(OC)c1OC (centres unmarked) [Compound 5],LD50,in vivo,75 mg/kg
CC(C)Sc1ccc(C(O)C(C)Nc2ccccc2)cc1 (centres unmarked) [Compound 6],LD50,in vivo,400 mg/kg
CC(C)Sc1ccc(C(O)C(C)Nc2ccccc2C2CCCCC2)cc1 (centres unmarked) [Compound 7],LD50,in vivo,> 400 mg/kg
CC(C)Sc1ccc(C(O)C(C)Nc2cccc(C3CCCCC3)c2)cc1 (centres unmarked) [Compound 8],LD50,in vivo,500 mg/kg
CC(C)Sc1ccc(C(O)C(C)Nc2ccc(C3CCCCC3)cc2)cc1 (centres unmarked) [Compound 9],LD50,in vivo,> 400 mg/kg
CC(C)Sc1ccc(C(O)C(C)NC2CCCCC2c2ccccc2)cc1 (centres unmarked) [Compound 11],LD50,in vivo,> 400 mg/kg
CC(C)Sc1ccc(C(O)C(C)NC2CCC(c3ccccc3)CC2)cc1 (centres unmarked) [Compound 13],LD50,in vivo,150 mg/kg
Fc1ccc(C(c2ccc(F)cc2)N2CCN(C/C=C/c3ccccc3)CC2)cc1 [Flunarizine],"LD50, fiducial limits",mice; intraperitoneally (TABLE 2),325-386 mg/kg b.w.
same,"LD50, fiducial limits",mice; orally (TABLE 2),498-687 mg/kg b.w.
same,"LD50, fiducial limits",rats; intraperitoneally (TABLE 2),332-543 mg/kg b.w.
same,"LD50, fiducial limits",rats; orally (TABLE 2),1714-2773 mg/kg b.w.
CCCCCCCCNC(C)C(O)c1ccc(SC(C)C)cc1 (centres unmarked) [Suloctidil],Slope (fiducial limits),mice; intraperitoneally,1.55 (1.33-1.82)
same,Slope (fiducial limits),mice; orally,1.24 (1.18-1.30)
same,"LD50, fiducial limits",mice; intraperitoneally (TABLE 2),26.8-39.4 mg/kg b.w.
same,"LD50, fiducial limits (micromol/kg equivalent)",mice; intraperitoneally (TABLE 2),70.4 to 116.7 µmol/kg
same,"LD50, fiducial limits",mice; orally (TABLE 2),2016-2511 mg/kg b.w.
same,"LD50, fiducial limits (micromol/kg equivalent)",mice; orally (TABLE 2),5972 to 7439 µmol/kg
same,LD50,in vivo,32.5 mg/kg
same,Slope (fiducial limits),rats; intraperitoneally,1.86 (1.42-2.44)
same,Slope (fiducial limits),rats; orally,1.18 (1.13-1.22)
same,"LD50, fiducial limits",rats; intraperitoneally (TABLE 2),32-69 mg/kg b.w.
same,"LD50, fiducial limits (micromol/kg equivalent)",rats; intraperitoneally (TABLE 2),94.8 to 204.4 µmol/kg
same,"LD50, fiducial limits",rats; orally (TABLE 2),1603-1976 mg/kg b.w.
same,"LD50, fiducial limits (micromol/kg equivalent)",rats; orally (TABLE 2),4749 to 5854 µmol/kg
